Assay results from patent US20110086759A1, “CHEMICAL COMPOUNDS” (SYNGENTA CROP PROTECTION, INC., priority 2007, published 2011).

What was measured:
Assay type in all cases: in vivo
Solanum nigrum (SOLNI) [1] = assay: Pre-emergence biological efficacy, glasshouse pot test; conditions: 312 h, pre-emergence, 1,000 g/ha, evaluated after 13 days (100=total damage; 0=no damage), read-out: Percentage damage SOLNI
Procedure, shortened: (§1)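 One day after seeds were sown in pots, compound was sprayed at 1000 or 250 g/ha. Plants were kept at 24/16 °C with 14 h light and 65% humidity and watered twice daily; damage was graded at day 13 (0 none, 100 total).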

[2] = system: Amaranthus retoflexus (AMARE); assay: as above; conditions: Amaranthus retroflexus, 312 h; pre-emergence, 1,000 g/ha, evaluated after 13 days (100=total damage; 0=no damage); read-out: Percentage damage AMARE
Procedure, shortened: as §1

[3] = system: Alopecurus myosuroides (ALOMY); assay: as above; conditions: 312 h, pre-emergence, 1,000 g/ha, evaluated after 13 days (100=total damage; 0=no damage), read-out: Percentage damage ALOMY
Procedure, shortened: as §1

[4] = system: Ipomea hederaceae (IPOHE); assay: as above; conditions: Ipomoea hederacea, 312 h; pre-emergence, 1,000 g/ha, evaluated after 13 days (100=total damage; 0=no damage); read-out: Percentage damage IPOHE
Procedure, shortened: as §1

[5] = system: Echinochloa crus-galli (ECHCG); assay: as above; conditions: 312 h, pre-emergence, 1,000 g/ha, evaluated after 13 days (100=total damage; 0=no damage), read-out: Percentage damage ECHCG
Procedure, shortened: as §1

Setaria faberi (SETFA) [6] = assay: as above; conditions: 312 h, pre-emergence, 1,000 g/ha, evaluated after 13 days (100=total damage; 0=no damage), read-out: Percentage damage SETFA
Procedure, shortened: as §1

Solanum nigrum (SOLNI) [7] = assay: Post-emergence biological efficacy, glasshouse pot test; conditions: 312 h, post-emergence, 1,000 g/ha, evaluated after 13 days (100=total damage; 0=no damage), read-out: Percentage damage caused to weed species, SOLNI
Procedure, shortened: (§2)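 Plants were sown in standard soil and grown 8 days in a glasshouse (24/16° C. day/night, 14 hours light, 65% humidity), then sprayed post-emergence at 1000 or 250 g/ha from acetone/water (50:50) with 0.5% Tween 20. Damage was scored visually after 13 days (0 = none, 100 = total).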

[8] = system: Amaranthus retoflexus (AMARE); assay: as above; conditions: Amaranthus retroflexus, 312 h; post-emergence, 1,000 g/ha, evaluated after 13 days (100=total damage; 0=no damage); read-out: Percentage damage caused to weed species, AMARE
Procedure, shortened: as §2

[9] = system: Alopecurus myosuroides (ALOMY); assay: as above; conditions: 312 h, post-emergence, 1,000 g/ha, evaluated after 13 days (100=total damage; 0=no damage), read-out: Percentage damage caused to weed species, ALOMY
Procedure, shortened: as §2

[10] = system: Ipomea hederaceae (IPOHE); assay: as above; conditions: Ipomoea hederacea, 312 h; post-emergence, 1,000 g/ha, evaluated after 13 days (100=total damage; 0=no damage); read-out: Percentage damage caused to weed species, IPOHE
Procedure, shortened: as §2

[11] = system: Echinochloa crus-galli (ECHCG); assay: as above; conditions: 312 h, post-emergence, 1,000 g/ha, evaluated after 13 days (100=total damage; 0=no damage), read-out: Percentage damage caused to weed species, ECHCG
Procedure, shortened: as §2

Setaria faberi (SETFA) [12] = assay: as above; conditions: 312 h, post-emergence, 1,000 g/ha, evaluated after 13 days (100=total damage; 0=no damage), read-out: Percentage damage caused to weed species, SETFA
Procedure, shortened: as §2

COC(=O)c1nc(C2CC2)nc(NCC(=O)OCc2ccccc2)c1Cl [Compound 4-265, 5-Chloro-2-cyclopropyl-6-methoxycarbonyl-4-(phenylmethoxy-carbonylmethyl-amino)pyrimidine]
pest or weed control at 1000 g/ha (Solanum nigrum (SOLNI) [1]): 90% | pest or weed control at 1000 g/ha [2]: 100% | pest or weed control at 1000 g/ha [3]: 10% | pest or weed control at 1000 g/ha [4]: 90% | pest or weed control at 1000 g/ha [5]: 30% | pest or weed control at 1000 g/ha (Setaria faberi (SETFA) [6]): 30% | pest or weed control at 1000 g/ha (Solanum nigrum (SOLNI) [7]): 70% | pest or weed control at 1000 g/ha [8]: 100% | pest or weed control at 1000 g/ha [9]: 20% | pest or weed control at 1000 g/ha [10]: 60% | pest or weed control at 1000 g/ha [11]: 20% | pest or weed control at 1000 g/ha (Setaria faberi (SETFA) [12]): 40%

COC(=O)c1nc(C2CC2)nc(NCCC(=O)OCc2ccccc2)c1Cl [Compound 4-266, 5-Chloro-2-cyclopropyl-6-methoxycarbonyl-4-[2-(phenylmethoxy-carbonyl)ethyl-amino]-pyrimidine]
pest or weed control at 1000 g/ha (Solanum nigrum (SOLNI) [1]): 100% | pest or weed control at 1000 g/ha [2]: 100% | pest or weed control at 1000 g/ha [3]: 50% | pest or weed control at 1000 g/ha [4]: 100% | pest or weed control at 1000 g/ha [5]: 60% | pest or weed control at 1000 g/ha (Setaria faberi (SETFA) [6]): 60% | pest or weed control at 1000 g/ha (Solanum nigrum (SOLNI) [7]): 80% | pest or weed control at 1000 g/ha [8]: 100% | pest or weed control at 1000 g/ha [9]: 60% | pest or weed control at 1000 g/ha [10]: 100% | pest or weed control at 1000 g/ha [11]: 50% | pest or weed control at 1000 g/ha (Setaria faberi (SETFA) [12]): 70%

COC(=O)c1nc(C2CC2)nc(NCC(c2ccccc2)c2ccccc2)c1Cl [Compound 4-267, 5-Chloro-2-cyclopropyl-4-[2,2-(diphenyl)-ethylamino]-6-methoxycarbonyl-pyrimidine]
pest or weed control at 1000 g/ha (Solanum nigrum (SOLNI) [1]): 60% | pest or weed control at 1000 g/ha [2]: 90% | pest or weed control at 1000 g/ha [3]: 10% | pest or weed control at 1000 g/ha [4]: 60% | pest or weed control at 1000 g/ha [5]: 10% | pest or weed control at 1000 g/ha (Setaria faberi (SETFA) [6]): 10% | pest or weed control at 1000 g/ha (Solanum nigrum (SOLNI) [7]): 80% | pest or weed control at 1000 g/ha [8]: 90% | pest or weed control at 1000 g/ha [9]: 10% | pest or weed control at 1000 g/ha [10]: 70% | pest or weed control at 1000 g/ha [11]: 10% | pest or weed control at 1000 g/ha (Setaria faberi (SETFA) [12]): 20%

COC(=O)c1nc(C2CC2)nc(NC(C)COc2ccccc2)c1Cl (stereo not drawn) [Compound 4-268, 5-Chloro-2-cyclopropyl-6-methoxycarbonyl-4-(2-phenoxy-1-methylethylamino)-pyrimidine]
pest or weed control at 1000 g/ha (Solanum nigrum (SOLNI) [1]): 10% | pest or weed control at 1000 g/ha [2]: 10% | pest or weed control at 1000 g/ha [3]: 0% | pest or weed control at 1000 g/ha [4]: 10% | pest or weed control at 1000 g/ha [5]: 0% | pest or weed control at 1000 g/ha (Setaria faberi (SETFA) [6]): 0% | pest or weed control at 1000 g/ha (Solanum nigrum (SOLNI) [7]): 60% | pest or weed control at 1000 g/ha [8]: 30% | pest or weed control at 1000 g/ha [9]: 10% | pest or weed control at 1000 g/ha [10]: 50% | pest or weed control at 1000 g/ha [11]: 10% | pest or weed control at 1000 g/ha (Setaria faberi (SETFA) [12]): 10%

COC(=O)c1nc(C2CC2)nc(NC(C)COc2ccc(C#N)cc2)c1Cl (stereo not drawn) [Compound 4-269, 5-Chloro-4-[2-(4-cyanophenoxy)-1-methyl-ethylamino]-2-cyclopropyl-6-methoxycarbonyl-pyrimidine]
pest or weed control at 1000 g/ha (Solanum nigrum (SOLNI) [1]): 0% | pest or weed control at 1000 g/ha [2]: 40% | pest or weed control at 1000 g/ha [3]: 0% | pest or weed control at 1000 g/ha [4]: 0% | pest or weed control at 1000 g/ha [5]: 0% | pest or weed control at 1000 g/ha (Setaria faberi (SETFA) [6]): 0% | pest or weed control at 1000 g/ha (Solanum nigrum (SOLNI) [7]): 70% | pest or weed control at 1000 g/ha [8]: 100% | pest or weed control at 1000 g/ha [9]: 20% | pest or weed control at 1000 g/ha [10]: 90% | pest or weed control at 1000 g/ha [11]: 0% | pest or weed control at 1000 g/ha (Setaria faberi (SETFA) [12]): 60%

COC(=O)c1nc(C2CC2)nc(NC(C)C(O)c2ccc(O)cc2)c1Cl (stereo not drawn) [Compound 4-271, 5-Chloro-2-cyclopropyl-4-[2-hydroxy-2-(4-hydroxyphenyl)-1-methyl-ethylamino]-6-methoxycarbonyl-pyrimidine]
pest or weed control at 1000 g/ha (Solanum nigrum (SOLNI) [1]): 90% | pest or weed control at 1000 g/ha [2]: 100% | pest or weed control at 1000 g/ha [3]: 20% | pest or weed control at 1000 g/ha [4]: 100% | pest or weed control at 1000 g/ha [5]: 20% | pest or weed control at 1000 g/ha (Setaria faberi (SETFA) [6]): 30% | pest or weed control at 1000 g/ha (Solanum nigrum (SOLNI) [7]): 90% | pest or weed control at 1000 g/ha [8]: 100% | pest or weed control at 1000 g/ha [9]: 30% | pest or weed control at 1000 g/ha [10]: 100% | pest or weed control at 1000 g/ha [11]: 70% | pest or weed control at 1000 g/ha (Setaria faberi (SETFA) [12]): 80%
